Measurements from article PMC8614864, “Bioengineered System for High Throughput Screening of Kv1 Ion Channel Blockers” (Bioengineering, 2021).
Like-named read-outs stand apart in the source and are kept apart here.

How the values were obtained:
[1] = test system: KcsA-Kv1.3-RFP; test: Direct titration of GFP-labeled toxins on spheroplasts by flow cytometry; type: binding
Experimental: Spheroplasts were prepared according to the previously developed protocol. Briefly, E. coli cells (BL21 (DE3) strain) transformed with pET28a-KcsA-Kv1.3-RFP plasmid were cultivated in a minimal M9 medium at 37 °C up to OD560 = 0.8, then induced with 50 μM IPTG and further grown for 18 h. Cells were harvested by centrifugation (5000× g, 10 min, 4 °C), incubated in buffer A (10 mM Tris–HCl, pH 8.0, 0.5 m sucrose) containing lysozyme (20 μg/mL) for 7 min on ice, then diluted twofold with buffer B (10 mM Tris–HCl, pH 8.0, 0.3 mM ethylenediamine tetraacetic acid) and further incubated for 20 min. Then MgCl2 was added to a final concentration of 10 mM to stabilize the spheroplasts. Obtained in this way, the spheroplast suspension has OD560 of about 0.5 and was diluted for binding assay as described further.
For ligand binding analysis, a series of ligand dilutions were prepared in 12 × 75 mm flow cytometry test tubes. For this, 45 µL of toxin solution with a ten times higher concentration than the maximal concentration on titration curve was prepared. This solution was serially diluted with 3.16-fold step (13.9 µL of toxin solution + 30 µL buffer). These toxin dilutions were supplemented with 270 µL of spheroplast suspension at 10^6 cells/mL to give 300 µL final reaction mixtures. For analysis of displacement of GFP-labeled toxins by unlabeled toxins, spheroplast suspensions were supplemented with 1.1× concentration of GFP-labeled toxin before mixing with unlabeled toxin dilutions. All dilutions were made in a binding buffer: 0.25 M sucrose, […], 2 mM KCl, 50 mM NaCl, 10 mM MgCl2, 0.2% BSA and 50 mM Tris–HCl, pH 7.5.
To ensure equilibrium conditions, we analyzed samples after 90–120 min of incubation without removing toxins. Data acquisition was carried out with FC-500 flow cytometer (Beckman Coulter, Brea, CA, USA) using 488 nm excitation for both GFP and RFP and fluorescence detection with FL1 (505–545 nm) and FL3 (610–630 nm) channels for GFP and RFP, respectively. To minimize background fluorescence, samples were run at low speed that gave approx. 100–500 events/s. Events were triggered by side scatting (SSC) so that RFP-labeled cells constituted approx. 30% of events (Figure 2). Remaining events were also present in the samples of filtered binding buffer without cells, so were likely to be related to system noise (either electronic or optical) but not to the dim spheroplasts.
Automated data analysis was performed by a dedicated script after pre-processing with commercial software. The script was available in user-friendly Jupyter notebook format where data were processed stepwise, and user input-output was realized through an internet browser. This script is designed to process multiple datasets at once and can be easily adjusted for someone’s actual needs.
Initial preprocessing was done with used FlowJo v10 software (Treestar Inc., Wilmington, DE, USA). This was used for gating on cells by forward and side scatter, followed by gating of RFP-positive events (Figure 1) and exporting of gated data in FCS format. This step was preferable since it allowed one to convert data into a conventional FCS format (our flow cytometer import data in LMD file format) and to filter out off-target events such as system noise, cell debris, clumped and untransfected cells (without Kv1.3-RFP in our case). We also created a script for this preprocessing but found it more complicated and less robust than commercial software.
Filtered data were processed stepwise by a dedicated script, written in the Python programming language and available as a Jupyter notebook for running either on a local machine or in a kaggle data cloud (https://www.kaggle.com/georgesharonov/fcsgroupfit, accessed and executed on 14 November 2021). Data processing workflow was designed for high throughput analysis by processing all similar data in a single script execution. The processing steps were detailed within the notebook. […]

[2] = molecular target: KcsA-Kv1.3-RFP; test: as above; details: slope by linear fitting of reduced data (maximum of normal distribution along GFP axis); one-site binding curve; 90–120 min incubation, 50 mM Tris–HCl pH 7.5 binding buffer; Mean ± SD (SD from fit, single dataset)

Substance: ChTx-GFP: hybrid protein, ChTx tagged N-terminally with eGFP, analogous to AgTx2-GFP; fluorescent probe
- Slope, nonspecific binding ([1]; 1 nM labeled toxin + 316 nM ChTx, fitting of all events): 0.47
- Slope, nonspecific binding ([1]; 1 nM labeled toxin + 316 nM ChTx, fitting of reduced data): 0.25
- Slope (proportional to occupied receptor fraction) ([1]; 1 nM labeled toxin, fitting of all events): 0.55
- Slope (proportional to occupied receptor fraction) ([1]; 1 nM labeled toxin, fitting of reduced data): 0.56
- Slope, nonspecific binding ([1]; 10 nM labeled toxin + 316 nM ChTx, fitting of all events): 0.53
- Slope, nonspecific binding ([1]; 10 nM labeled toxin + 316 nM ChTx, fitting of reduced data): 0.21
- Slope (proportional to occupied receptor fraction) ([1]; 10 nM labeled toxin, fitting of all events): 0.87
- Slope (proportional to occupied receptor fraction) ([1]; 10 nM labeled toxin, fitting of reduced data): 0.84
- Kd ([1]; binding curve of direct titration, reduced data, nonspecific binding subtracted, flow cytometry, read-out: Kd (printed in Figure 4A)): 0.735 nM
- Kd [2]: 0.74 ± 0.17 nM
